The target of one test is Phospholipase A2 (Homo sapiens, UniProt P04054). It is filed as functional.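 Further: confirmatory dose-response counterscreen on phospholipase A2, testing hits that came from an ultra-high-throughput screen for ATG4B inhibitors.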
In test [1] the target is T1, Sentrin-specific protease 7 (Homo sapiens, UniProt Q9BQF6).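 Further: Luminescence-based dose-response confirmation of ultra-high-throughput screening hits, measuring inhibition of SENP7.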
T1 sequence (Q9BQF6 whole entry): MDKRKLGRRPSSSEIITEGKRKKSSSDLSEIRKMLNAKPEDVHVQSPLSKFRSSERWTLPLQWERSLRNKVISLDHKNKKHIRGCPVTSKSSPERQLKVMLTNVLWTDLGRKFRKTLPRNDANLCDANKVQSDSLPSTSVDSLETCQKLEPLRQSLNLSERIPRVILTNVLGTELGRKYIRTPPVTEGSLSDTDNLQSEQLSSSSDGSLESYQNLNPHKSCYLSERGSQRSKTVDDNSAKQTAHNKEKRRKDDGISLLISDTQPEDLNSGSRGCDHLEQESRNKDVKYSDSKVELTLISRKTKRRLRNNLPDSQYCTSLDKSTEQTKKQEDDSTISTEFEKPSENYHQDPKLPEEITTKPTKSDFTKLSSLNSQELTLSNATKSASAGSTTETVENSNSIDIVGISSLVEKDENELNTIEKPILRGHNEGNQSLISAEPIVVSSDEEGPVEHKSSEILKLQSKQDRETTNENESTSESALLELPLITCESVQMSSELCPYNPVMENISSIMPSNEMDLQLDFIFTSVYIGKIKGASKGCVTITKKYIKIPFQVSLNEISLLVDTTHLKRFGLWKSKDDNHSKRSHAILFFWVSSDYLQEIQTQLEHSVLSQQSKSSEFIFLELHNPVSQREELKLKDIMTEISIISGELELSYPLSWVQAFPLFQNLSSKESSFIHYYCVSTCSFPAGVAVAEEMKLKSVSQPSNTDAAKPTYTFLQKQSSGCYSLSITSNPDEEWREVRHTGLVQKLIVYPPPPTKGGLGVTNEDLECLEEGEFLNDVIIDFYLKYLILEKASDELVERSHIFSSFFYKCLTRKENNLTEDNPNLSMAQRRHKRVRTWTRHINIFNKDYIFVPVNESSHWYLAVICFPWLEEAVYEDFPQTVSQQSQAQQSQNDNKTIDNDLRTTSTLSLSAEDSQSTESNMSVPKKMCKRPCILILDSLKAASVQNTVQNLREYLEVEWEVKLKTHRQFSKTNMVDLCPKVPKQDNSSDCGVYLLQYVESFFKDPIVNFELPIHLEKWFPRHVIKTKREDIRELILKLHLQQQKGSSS
It is filed as functional.

Test [2] has as its target Induced myeloid leukemia cell differentiation protein Mcl-1 (Homo sapiens, UniProt Q07820). It is filed as functional.
The nature of another test: cells. It is filed as functional.
The next test has as its system BJ. In words: cells. Type of test: functional, cell-based. The following applies: Homo sapiens.
A short description of test [3]: cytotoxicity toward DRD oncogenic fibroblasts, dose response, cell-based, non-viral oncogenic, luminescence (AID 1934). It is filed as functional. The following applies: Homo sapiens.
The target of the next test is T2, Caspase-6 (Homo sapiens, UniProt P55212).
T2 sequence (P55212 whole entry): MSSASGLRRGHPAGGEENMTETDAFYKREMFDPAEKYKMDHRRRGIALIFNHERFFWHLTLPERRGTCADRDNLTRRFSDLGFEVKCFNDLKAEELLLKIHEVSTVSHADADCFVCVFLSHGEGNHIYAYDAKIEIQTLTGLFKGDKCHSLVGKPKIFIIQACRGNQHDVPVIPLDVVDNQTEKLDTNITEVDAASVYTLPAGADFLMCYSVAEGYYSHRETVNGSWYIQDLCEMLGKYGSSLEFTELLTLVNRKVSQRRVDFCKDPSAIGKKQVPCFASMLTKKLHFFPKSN
In words: human caspase-6 inhibitors, dose response, biochemical, VEID-R110 fluorescence, cherry-pick (AID 720632).

Active and inactive are the calls of the source.

Sequence of Phospholipase A2 (P04054 whole entry): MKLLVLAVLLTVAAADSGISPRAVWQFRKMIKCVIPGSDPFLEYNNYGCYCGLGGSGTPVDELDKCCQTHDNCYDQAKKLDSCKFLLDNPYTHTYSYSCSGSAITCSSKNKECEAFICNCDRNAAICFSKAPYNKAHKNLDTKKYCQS
Sequence of Induced myeloid leukemia cell differentiation protein Mcl-1 (Q07820 whole entry): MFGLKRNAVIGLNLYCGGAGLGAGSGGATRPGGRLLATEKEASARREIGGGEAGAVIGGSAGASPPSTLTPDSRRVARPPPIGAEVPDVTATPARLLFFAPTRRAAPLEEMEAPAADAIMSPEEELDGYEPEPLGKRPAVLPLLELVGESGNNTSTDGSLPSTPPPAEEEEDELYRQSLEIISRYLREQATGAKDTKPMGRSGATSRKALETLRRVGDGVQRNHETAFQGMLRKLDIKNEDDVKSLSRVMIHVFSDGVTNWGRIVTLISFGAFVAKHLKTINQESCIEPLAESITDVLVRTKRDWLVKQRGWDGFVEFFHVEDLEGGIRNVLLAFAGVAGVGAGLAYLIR

`O=C(O)c1ccc(NC2=C/C(=N/S(=O)(=O)c3ccccc3)c3ccccc3C2=O)cc1`: the IC50 at Phospholipase A2 is 34.7 µM (inactive); in test [1] it was 2.06 µM (active); in test [2] it was 1.65 µM (active).

On to `Nc1ccc2c(c1)C(=O)C(=O)c1ccccc1-2`, for which the IC50 was 7.1 µM (active) in “cells” and 48.8 µM (inactive) on Phospholipase A2. The values for the EC50 (in the test on BJ; in test [3]) were 4.11 µM (active) and 4.42 µM (active), respectively.

For `COc1cc(-c2ccc(Nc3ccccc3C(=O)O)c(OC)c2)ccc1Nc1ccccc1C(=O)O`, the IC50 in test [2] is 1.52 µM (active). In addition, the AC50 on Caspase-6 is 4.6 µM (active).

As for `COC(=O)[C@@H]1[C@@H](C(=O)OC)C2(c3ccccc3-c3ccccc32)N(c2ccc(Cl)cc2)N1C#N`, the 50% effective concentration (EC50) is 6.23 µM (active) with BJ and 4.84 µM (active) in test [3].

Regarding `COc1ccc(OC)c(Nc2cc3ccccc3c(O)n2)c1`, the concentration for half-maximal inhibition (IC50) in test [1] is 2.19 µM (active). In addition, the half-maximal activity concentration (AC50) at Caspase-6 is 2.44 µM (active).

With `COC(CNC(=O)c1ccc2c3c(onc13)-c1ccccc1C2=O)OC`, in “cells”, the IC50 was 41.5 µM (active).

The IC50 is the concentration that inhibits the measured activity by half. In general, EC50 refers to the concentration giving half of the maximal effect. As a reminder, the AC50 is the concentration at which the activity in the assay is half-maximal.

Values taken from ChEMBL document CHEMBL1201862, “PubChem BioAssay data set” (2004).
